Read-outs that look alike come from different tables or passages of the source.
Legend:
[1] = Regional gastrointestinal absorption of propofol prodrug; assay type: in vivo; details: oral; colon vs upper gastrointestinal tract
[2] = cited from earlier work
[3] = orally administered propofol; dose-normalized oral vs intravenous; cited from earlier work
[4] = oral dosing, rats; cited from earlier work
[5] = system: sedation / general anesthesia; details: in vivo; cited from earlier work
[6] = oral dose of 25-200 mg dolasetron
[7] = oral dose of 5-20 mg granisetron

CC(C)c1cccc(C(C)C)c1OC(=O)OC[C@H](N)C(=O)O [(S)-2-amino-3-(2,6-diisopropylphenoxycarbonyloxy)-propanoic acid]
gastrointestinal absorption [1]: limited colonic absorption

O=C(O[C@@H]1C[C@@H]2C[C@H]3C[C@H](C1)N2CC3=O)c1c[nH]c2ccccc12 [dolasetron]
AUC [2, 6]: about 1,233 ng·mL·h^−1 | oral bioavailability [2, 6]: 70-89% | terminal elimination half-life [2, 6]: 5 to 10 h

CN1C2CCCC1CC(NC(=O)c1nn(C)c3ccccc13)C2 (stereo not shown) [granisetron]
AUC [2, 7]: 83 to 350 ng·mL/h | maximum plasma concentration [2, 7]: 14 to 68 ng/mL | terminal elimination half-life [2, 7]: 1.5 to 5.7 h

Cc1nccn1CC1CCc2c(c3ccccc3n2C)C1=O (stereo not shown) [ondansetron]
AUC ([2]; oral dose of 8 mg ondansetron): 101 to 351 ng·mL/h | maximum plasma concentration ([2]; oral dose of 8 mg ondansetron): 20 to 52 ng/mL | oral bioavailability ([2]; oral dose of 8 mg ondansetron): 48-75% | terminal elimination half-life ([2]; oral dose of 8 mg ondansetron): 2.5 to 6.2 h

CC(C)c1cccc(C(C)C)c1O [propofol, 2,6-diisopropylphenol]
absolute oral bioavailability [3]: less than 2% | fraction of administered drug undergoing first pass metabolism [4]: approximately 90% | propofol plasma concentrations needed for sedation [5]: 1,500-2,000 ng/mL | propofol plasma concentrations needed for the maintenance of general anesthesia [5]: 3,000-10,000 ng/mL

CN1[C@@H]2CC[C@H]1C[C@@H](OC(=O)c1c[nH]c3ccccc13)C2 [tropisetron]
AUC ([2]; oral dose of 5 mg tropisetron): about 230 ng·mL·h^−1 | maximum plasma concentration ([2]; oral dose of 5 mg tropisetron): about 22 ng/mL | oral bioavailability ([2]; oral dose of 5 mg tropisetron): 60-99% | terminal elimination half-life ([2]; oral dose of 5 mg tropisetron): 8.6 h

Reference: patent US20070259933A1, “COMPOSITIONS, DOSAGE FORMS AND METHODS OF TREATING EMESIS” (XenoPort, Inc., priority 2006, published 2007)
